Laboratory results as given in patent US6455593B1, “Method of dynamic retardation of cell cycle kinetics to potentiate cell damage” (priority 1995, dated 2002).
pIC50: −log10 of the molar value.

Tests used:
[1] = system: U937 cells; assay: Induction of apoptosis by DEET; type: cell-based, human
[2] = system: Jurkat T cells; assay: Induction of apoptosis by DEET; type: cell-based, human
[3] = system: Daudi B cells; assay: Induction of apoptosis by DEET; type: cell-based, human
[4] = system: human promonocytic lymphoma cells (U937); assay: Microculture indicator system (MIS), MTT growth inhibition assay with bivariate serial dilutions; type: cell-based
Experimental: Microcultures of human promonocytic lymphoma cells (U937) (“the U937 cells”) originally obtained from the American Type Culture Collection (CRL 1593) and later grown by Dr. K. Zoon at the FDA in Bethesda, Md. were set up in a multiwell plate with serial two-fold dilutions of dThd in tissue culture growth medium (RPMI 1640 plus 10% Nurserum and antibiotics). The volume of medium per well was 100 μl and the cell number per well was about 1×10^5. The plate was incubated at 37° C. for 24 hr.
A dye, 3-[4,5-dimethylthiazol-2-yl]-2,5-diphenyl-tetrazolium bromide (MTT), was used as a chromogenic indicator of the metabolically active cell mass. Viable cells metabolize the dye and accumulate a reduced formazan product (blue color) which is solubilized for colorimetry. Mossman T, J. Immunol. Methods 5:55-63 (1983); Li L and Lau B H S, In Vitro Cell Dev. Biol. 29A:531-536 (1993). The MTT assay has been established as useful for measuring either growth inhibition or population killing. Plowman, supra. The MTT method is ideal for cells tested in suspension growth, and can also be used for some cells growing in monolayers. […] Alley, supra; Hofs, supra; Wilson J K et al., Br. J. Cancer 62:189-94 (1990); Plowman, supra.
Thirty μl of 0.5% MTT in phosphate buffered saline was added to each microculture well at the appropriate time. After incubation at 37° C. for 3 hr, 120 μl of an aqueous solution of 10 % SDS with 0.01 N HCl was added to release and dissolve formazan product. This was accomplished by overnight incubation of the plate at 37° C. After careful mixing of the microwell contents by placing the plates on an orbital shaker for 5 minutes the absorbencies were quantitated by spectrophotometry at 570 nm with a Ceres UV 900 HDI microwell plate reader (from Biotek Instruments Inc, Winooski, Vt. 05404-0998). Absorbance data was normalized to a blank well containing all reagents without cells and was collected semi-automatically.
Flat-bottom 96-well plates of tissue culture quality (Corning or Costar) were set up with two-fold serial dilutions of each agent to be tested, e.g., the RA and TCI, using a multichannel pipettor with adjustable volume, e.g., Costar or Rainin, to perform serial mixing. This set-up is diagrammed in FIG. 12. […] In each plate, a total of 59 wells then contained bivariate agent combinations, the bivariate serial dilutions.
Agents were serially diluted by serial mixing in two separate plates or series of wells, and then were combined prior to addition of a fixed volume and density of the U937 cells in a suspension calculated to deliver about 1×10^5 cells per well.
Cells were added after serial dilutions of the dThd had been dispensed. Cells were dispensed at about 10×10^4 cells per microwell to provide optimal sensitivity of detection of cell damage in subsequent calorimetric assays. […] The final volume of medium was 100 μl/well. The plates were further incubated at 37° C. for a total duration of 18-24 h. The dye MTT was used as a chromogenic indicator of the residual and metabolically active cell mass. (Described in Example 1).
In this MTT assay, normalized absorbance data was collected semi-automatically from each microculture well with a Ceres UV 900 HD1 plate reader, from Biotek Instruments Inc., Winooski, V T 05404-0998, stored in an EIA file under the Ceres 900 program, transferred in comma delimited format to a floppy diskette, and imported into a spread sheet program (Borland Quattro Pro) for data manipulations.

[5] = system: U937 cells; assay: Flow cytometric cell cycle analysis (propidium iodide); type: cell-based, human; conditions: U937
Experimental: Flow cytometric analyses were performed with a Coulter Epics System (purchased from Coulter Corp, Hialeah, Fla.). Cells were disrupted in buffer with 0.1% Triton-X 100 (or 0.6 % NP-40), so that the nuclei could be stained with 0.05% propidium iodide (PI). See Shapiro N M, Practical Flow Cytometry, Man R Liss, NY (1988); Nicoletti I et al., J Immunol Methods 139:271-9 (1991). Analyses of 10,000 nuclei were performed with graduated concentrations of dThd at serial time points. Histograms of PI fluorescent emissions at 675±10 nm were used to discriminate cell cycle fractions of the target population. The proportion of cells in each phase of the cell cycle is represented by stack bars above the X-axis as a fraction of those cells with intact DNA structure. The fraction of cells with depleted DNA in each sample is represented below the X-axis as a percentage of the total cell number. Cells with depleted DNA are presumed apoptotic. Crompton S T et. al. Biophys. Biochem. Res. Comm. 183:532-537 (1992). Each stack bar in FIG. 5 represents the cell cycle distribution of a population sample of >10,000 cells, analyzed for each indicated dThd concentration at indicated treatment times.
Flow cytometric analyses were performed as in Example 2. The results are shown in plot A of FIG. 5 from Example 2.
The U937 cells were exposed to a range of concentrations below the IC40 and sampled for flow cytometry at intervals of 8, 16, and 24 hours. Flow cytometric analysis was performed as described in Example 2.

[6] = system: p. falciparum W2; assay: Parasite growth by 3H-hypoxanthine uptake in infected erythrocytes; type: cell-based; conditions: Plasmodium falciparum, W2, Erythrocyte; 24 hr after RBC infection, 3H-hypoxanthine uptake; read-out: inhibitory concentrations (IC50), strain W2
[7] = system: p. falciparum D6; assay: as above; type: cell-based; conditions: Plasmodium falciparum, D6, Erythrocyte; 24 hr after RBC infection, 3H-hypoxanthine uptake; read-out: inhibitory concentrations (IC50), strain D6
[8] = system: Burkitt's lymphoma cell line Raji; assay: MIS MTT growth inhibition assay; type: cell-based, human; conditions: total 24 Hours
[9] = after oral ingestion; cited from earlier work
[10] = system: U937 cells; assay: DNA gel electrophoresis for DNA fragmentation (apoptosis); type: cell-based, human
Experimental: Samples of the U937 cells were exposed to a series of concentrations of dThd for 24 hr. Their DNA was isolated by lysis of cell samples in TE buffer containing TRIS 10 mM, EDTA 10 mM, SDS 0.5% and proteinase K 200 μg/ml at […] for 2 h. The proteins were precipitated in a IM solution of NaCl and centrifuged at 2,500×g for 30 min at […] DNAse free RNase (25 μg/ml) was added to the supernatant and incubated for 30 min at 37° C. Spectrophotometric quantitation of the DNA in the supernatant was quantitated by absorbance spectrophotometry at 260 nm. Volumes adjusted to contain equal amounts of DNA were mixed with a loading buffer of 40% (w/v) sucrose, 0.1M EDTA pH 8.0, 0.5% (w/v) sodium lauryl sulphate and 0.05% (w/v) bromophenol blue. […] Separated bands of DNA were stained with ethidium bromide and photographed in UV light (Fotodyne Inc.). […] The lowest molecular weight (about 180 bp) was determined with a standard 123 bp ladder from Sigma Chemical Co. (Cat. #D5042). The result shown is a classical “DNA ladder,” characteristic of the fragmentation of DNA macromolecules in apoptosis. See Tomei, supra; Obeid, supra; Gold, supra.

[11] = Homo sapiens, U-937, 4 h, U937, HU […] 4 H, K252a 0, read-out: MTT % inhibition, HU only

CCN(CC)C(=O)c1cccc(C)c1 [DEET, N,N-Diethyl-m-toluamide]
Concentration inducing apoptosis [1]: above 0.5 mM | Concentration inducing apoptosis [2]: above 0.5 mM | Concentration inducing apoptosis [3]: above 0.5 mM

NC(=O)NO [HU, hydroxyurea]
inhibition at 10 µM ([4]; Homo sapiens, U-937, 4 h, U937, HU 0.01 mM 4 H, K252a 0, read-out: MTT % inhibition, HU only): -1% | inhibition at 20 µM ([4]; Homo sapiens, U-937, 4 h, U937, HU 0.02 mM 4 H, K252a 0, read-out: MTT % inhibition, HU only): -1% | inhibition at 30 µM ([4]; Homo sapiens, U-937, 4 h, U937, HU 0.03 mM 4 H, K252a 0, read-out: MTT % inhibition, HU only): 1% | inhibition at 60 µM ([4]; Homo sapiens, U-937, 4 h, U937, HU 0.06 mM 4 H, K252a 0, read-out: MTT % inhibition, HU only): 9% | inhibition at 500 µM ([4]; Homo sapiens, U-937, 4 h, U937, HU 0.50 mM 4 H, K252a 0, read-out: MTT % inhibition, HU only): 48% | inhibition at 1000 µM ([4]; Homo sapiens, U-937, 4 h, U937, HU 1.00 mM 4 H, K252a 0, read-out: MTT % inhibition, HU only): 52% | inhibition at 2000 µM ([4]; Homo sapiens, U-937, 4 h, U937, HU 2.00 mM 4 H, K252a 0, read-out: MTT % inhibition, HU only): 59% | inhibition at 130 µM [4, 11]: 20% | inhibition at 250 µM [4, 11]: 36% | Enhancement of DEET-induced apoptosis as prospective RA ([4]; MTT tests, about 0.05 to 3 mM, preliminary results): no significant enhancement of the DEET-induced apoptosis | MTT % inhibition, HU only ([4]; U937, HU 0.00 mM (so in the source) 4 H, K252a 0): −2% | Cells that became DNA depleted ([5]; 0.125-1 mM HU, up to 16 hr): no more than 20% | Cells with depleted DNA ([5]; HU>1 mM (2 mM at 24 hr)): a major increase in cells with depleted DNA became evident | pIC50 [6]: 3.66 | pIC50 [7]: 3.76 | Growth Inhibition ([8]; HU only 0.00 mM): −3% | Growth Inhibition ([8]; HU only 0.01 mM): −0% | Growth Inhibition ([8]; HU only 0.02 mM): −7% | Growth Inhibition ([8]; HU only 0.03 mM): −7% | Growth Inhibition ([8]; HU only 0.05 mM): −7% | Growth Inhibition ([8]; HU only 0.50 mM): 0% | Growth Inhibition ([8]; HU only 1.00 mM): 0% | Growth Inhibition ([8]; HU only 2.00 mM): 17% | Time of blood level peak [9]: 2 to 4 h

CCCCCCCCCCCCCC(=O)O[C@@H]1[C@@H](C)[C@@]2(O)[C@@H](C=C(CO)C[C@]3(O)C(=O)C(C)=C[C@@H]23)[C@H]2C(C)(C)[C@]12OC(C)=O [TPA, 12-0-tetradecanoyl-phorbol-13-acetate]
Effect on dThd potentiation of STSP DNA fragmentation ([10]; 10 nM TPA 48 hours differentiation, then dThd […], STSP 25 nM 7 hours): significantly reduced dThd potentiation of DNA fragmentation during STSP treatment

Nc1ccn([C@H]2C[C@H](O)[C@@H](CO)O2)c(=O)n1 [dCyt, deoxycytidine]
Effect on DNA fragmentation by dThd and STSP ([10]; dCyt added to U937 cultures treated with dThd and STSP): decreased DNA fragmentation
